Source: PubChem BioAssay (NCI)
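Step 1: Grow cells in 96-well plates. Step 2: Expose to compound for 48 hours at 5 concentrations. Step 3: Interpolate endpoints linearly; if unreached, use highest concentration. At the TGI there is no net growth.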

Columns and labels:
Assay in all cases: NCI-60 cell line screen, 48 h
[1] = system: CCRF-CEM leukemia
[2] = system: NCI/ADR-RES ovarian
[3] = system: UO-31 renal
[4] = system: SN12C renal
[5] = system: A549 NSCLC
[6] = system: ACHN renal
[7] = system: SF-539 CNS
[8] = system: MCF7 breast
[9] = system: LOX IMVI melanoma
[10] = system: HL-60(TB) leukemia

SMILES: C/C(=C\c1ccccc1)C(=O)NCc1ccc(C(=O)NCCc2ccccc2)cc1
- TGI [1]: > 100 µM
- TGI [2]: > 100 µM
- TGI [3]: > 100 µM
- TGI [4]: > 100 µM
- TGI [5]: > 100 µM
- TGI [6]: > 100 µM
- TGI [7]: > 81.9 µM
- TGI [8]: > 100 µM
- TGI [9]: > 100 µM

SMILES: COP(=O)(OC)C(NC(=O)C(F)(F)F)(c1ccccc1)C(F)(F)F (centres undefined)
- TGI [1]: > 100 µM
- TGI [3]: > 100 µM
- TGI [4]: > 100 µM
- TGI [5]: > 100 µM
- TGI [6]: > 100 µM
- TGI [7]: > 100 µM
- TGI [10]: > 100 µM
- TGI [9]: > 100 µM

SMILES: CC1(C)O[C@@H](CCl)C[C@H](C#N)O1
- TGI [1]: > 100 µM
- TGI [3]: > 100 µM
- TGI [4]: > 100 µM
- TGI [5]: > 100 µM
- TGI [6]: > 100 µM
- TGI [7]: > 100 µM
- TGI [10]: > 100 µM
- TGI [9]: > 100 µM

SMILES: CCCC(C)n1c(C)nc2c1C(=O)c1ccccc1C2=O (centres undefined)
- TGI [1]: > 100 µM
- TGI [3]: 93.3 µM
- TGI [4]: > 100 µM
- TGI [5]: > 100 µM
- TGI [6]: 95.8 µM
- TGI [7]: 98 µM
- TGI [10]: > 100 µM
- TGI [9]: 23.6 µM

SMILES: O=C1c2ccccc2C(=O)c2sc(Nc3ccccc3C(F)(F)F)nc21
- TGI [1]: > 100 µM
- TGI [3]: 25.2 µM
- TGI [4]: > 100 µM
- TGI [5]: 57.2 µM
- TGI [6]: 33 µM
- TGI [7]: 45.8 µM
- TGI [10]: 17.7 µM
- TGI [8]: 45.9 µM
- TGI [9]: > 100 µM

SMILES: CCN(CC)C(=S)Nc1ccc(-c2cc3ccc(O)cc3oc2=O)cc1
- TGI [1]: > 100 µM
- TGI [2]: 81.9 µM
- TGI [3]: > 100 µM
- TGI [4]: > 100 µM
- TGI [5]: > 100 µM
- TGI [6]: > 100 µM
- TGI [7]: > 100 µM
- TGI [10]: 23.2 µM
- TGI [9]: > 100 µM

SMILES: CC(C)CCCC(C)[C@H]1CC[C@H]2[C@@H]3CC[C@H]4C[C@@H](CCC=C(c5cc(Cl)c(O)c(C(=O)OC(C)C)c5)c5cc(Cl)c(O)c(C(=O)OC(C)C)c5)CC[C@]4(C)[C@H]3CC[C@]12C (some centres undefined)
- TGI [1]: > 50 µM
- TGI [2]: > 50 µM
- TGI [4]: > 50 µM
- TGI [5]: > 50 µM
- TGI [7]: > 50 µM
- TGI [10]: > 50 µM
- TGI [8]: > 50 µM
- TGI [9]: > 50 µM

SMILES: CC1(C)C(CCO)CC1n1cc(I)c(=O)[nH]c1=O (centres undefined)
- TGI [1]: > 100 µM
- TGI [2]: > 100 µM
- TGI [3]: > 100 µM
- TGI [4]: > 100 µM
- TGI [5]: > 100 µM
- TGI [6]: > 100 µM
- TGI [7]: > 100 µM
- TGI [8]: > 100 µM
- TGI [9]: > 100 µM

SMILES: C=C1C(=O)O[C@H]2[C@H]3O[C@@H](C[C@@H]12)[C@@]1(C)CC[C@H](O1)[C@H](C)CCC[C@H]3C
- TGI [1]: 2.99 µM
- TGI [2]: 2.99 µM
- TGI [3]: 2.9 µM
- TGI [4]: 6.61 µM
- TGI [5]: 5.09 µM
- TGI [6]: 2.84 µM
- TGI [10]: 1.27 µM
- TGI [8]: 3.98 µM
- TGI [9]: 2.94 µM

SMILES: O=C(CCC(=O)CC(O)(C(F)(F)F)C(F)(F)F)CC(O)(C(F)(F)F)C(F)(F)F
- TGI [1]: > 100 µM
- TGI [2]: > 100 µM
- TGI [3]: 59.3 µM
- TGI [4]: > 100 µM
- TGI [5]: > 100 µM
- TGI [6]: > 100 µM
- TGI [7]: > 100 µM
- TGI [10]: 91.2 µM
- TGI [8]: > 100 µM

SMILES: COc1cc(C2c3cc4c(cc3OC(Nc3ccccc3)C2C)OCO4)cc(OC)c1O (centres undefined)
- TGI [2]: 8.02 µM
- TGI [3]: 25.8 µM
- TGI [4]: 21.2 µM
- TGI [5]: 19.2 µM
- TGI [7]: 8.9 µM
- TGI [10]: 4.34 µM
- TGI [8]: 24.6 µM

SMILES: Cc1c(-c2ccccc2)nn2cc(-c3ccccc3)nnc12
- TGI [1]: > 100 µM
- TGI [2]: > 100 µM
- TGI [3]: > 100 µM
- TGI [4]: > 100 µM
- TGI [5]: 52.5 µM
- TGI [6]: > 100 µM
- TGI [9]: 41.1 µM

SMILES: O=C(c1ccccc1)n1cc(-c2ccccc2)c2c(=O)[nH]cnc21
- TGI [1]: > 100 µM
- TGI [2]: > 100 µM
- TGI [3]: > 100 µM
- TGI [4]: > 100 µM
- TGI [5]: > 100 µM
- TGI [6]: > 100 µM
- TGI [7]: > 100 µM
- TGI [8]: > 100 µM
- TGI [9]: > 100 µM

SMILES: O=C1C=C2SC3C[C@@]24CC1[N+]1=c2c4c(c(O)c4c2=C(C=N4)CC1)N3
- TGI [1]: > 100 µM
- TGI [2]: 16.1 µM
- TGI [3]: 30.3 µM
- TGI [4]: 6.95 µM
- TGI [5]: 21.2 µM
- TGI [7]: 3.34 µM
- TGI [10]: 3.78 µM
- TGI [8]: 4.23 µM
- TGI [9]: 6.65 µM

SMILES: COc1cc([C@@H]2c3cc4c(cc3[C@@H](Nc3ccccc3C(=O)c3ccccc3)[C@H]3COC(=O)[C@H]23)OCO4)cc(OC)c1OC
- TGI [1]: > 100 µM
- TGI [2]: > 100 µM
- TGI [3]: > 100 µM
- TGI [4]: > 100 µM
- TGI [5]: > 100 µM
- TGI [6]: > 100 µM
- TGI [7]: 0.638 µM
- TGI [8]: > 100 µM
- TGI [9]: > 100 µM

SMILES: Cc1cn(CCCCCCC2=NCCCN2)c(=O)[nH]c1=O
- TGI [1]: > 100 µM
- TGI [2]: > 100 µM
- TGI [3]: > 100 µM
- TGI [4]: > 100 µM
- TGI [5]: > 100 µM
- TGI [6]: > 100 µM
- TGI [7]: > 100 µM
- TGI [8]: > 100 µM
- TGI [9]: > 100 µM

SMILES: O=S(OC12CC3CC(CC(C3)C1)C2)c1cc(Cl)cc(Cl)c1OCc1ccccc1 (centres undefined)
- TGI [1]: > 100 µM
- TGI [3]: > 100 µM
- TGI [4]: > 100 µM
- TGI [6]: > 100 µM
- TGI [7]: > 100 µM
- TGI [10]: > 100 µM
- TGI [9]: > 100 µM

SMILES: COc1cc(O)c2c(=O)c3c(C)cccc3n(C)c2c1
- TGI [1]: > 10 µM
- TGI [2]: > 10 µM
- TGI [3]: > 10 µM
- TGI [4]: > 10 µM
- TGI [5]: > 10 µM
- TGI [6]: > 10 µM
- TGI [7]: > 10 µM
- TGI [8]: > 10 µM
- TGI [9]: > 10 µM

SMILES: CCOC(=O)c1cc(I)c(-c2cc(C)no2)n1C
- TGI [1]: > 100 µM
- TGI [2]: > 100 µM
- TGI [3]: > 100 µM
- TGI [4]: 69.4 µM
- TGI [5]: > 100 µM
- TGI [6]: > 100 µM
- TGI [7]: > 100 µM
- TGI [10]: 74.5 µM
- TGI [9]: > 100 µM

SMILES: NNc1nncc2[nH]cnc12
- TGI [1]: > 100 µM
- TGI [2]: > 100 µM
- TGI [3]: > 100 µM
- TGI [4]: > 100 µM
- TGI [5]: > 100 µM
- TGI [6]: > 100 µM
- TGI [7]: > 100 µM
- TGI [10]: > 100 µM
- TGI [8]: > 100 µM

SMILES: O=C1Nc2ccccc2Cn2c1cc1oc(-c3ccccc3)cc12
- TGI [1]: > 100 µM
- TGI [2]: > 100 µM
- TGI [4]: > 100 µM
- TGI [5]: > 100 µM
- TGI [6]: > 100 µM
- TGI [7]: 74.3 µM
- TGI [10]: > 100 µM
- TGI [8]: > 100 µM
- TGI [9]: > 100 µM

SMILES: O=C1c2ccccc2C(=O)c2c(O)c(NCCCNCCO)cc(O)c21
- TGI [1]: 15.5 µM
- TGI [3]: 19.5 µM
- TGI [4]: 25.8 µM
- TGI [5]: 23.7 µM
- TGI [6]: 15.9 µM
- TGI [7]: 22.2 µM
- TGI [10]: 19.7 µM

SMILES: COc1cc(C2=NNC(=O)c3ccccc3N2c2nc(-c3cccs3)nc3ccc(Br)cc23)cc(OC)c1OC
- TGI [1]: > 100 µM
- TGI [2]: 30 µM
- TGI [3]: > 100 µM
- TGI [4]: > 100 µM
- TGI [5]: > 100 µM
- TGI [6]: 63.3 µM
- TGI [7]: 24.2 µM
- TGI [8]: 7.28 µM
